Activation and IC50 data for seven compounds are collected here from US20100056526A1, “HETEROMONOCYCLIC COMPOUND AND USE THEREOF” (Takeda Pharmaceutical Company Limited, priority 2006, published 2010).

The target in one test is T1, PPARγ (Homo sapiens, UniProt P37231).
T1 construct: expressed in transfected cells; host or cells: CHO-K1
T1 sequence (P37231 1-477 isoform P37231-2): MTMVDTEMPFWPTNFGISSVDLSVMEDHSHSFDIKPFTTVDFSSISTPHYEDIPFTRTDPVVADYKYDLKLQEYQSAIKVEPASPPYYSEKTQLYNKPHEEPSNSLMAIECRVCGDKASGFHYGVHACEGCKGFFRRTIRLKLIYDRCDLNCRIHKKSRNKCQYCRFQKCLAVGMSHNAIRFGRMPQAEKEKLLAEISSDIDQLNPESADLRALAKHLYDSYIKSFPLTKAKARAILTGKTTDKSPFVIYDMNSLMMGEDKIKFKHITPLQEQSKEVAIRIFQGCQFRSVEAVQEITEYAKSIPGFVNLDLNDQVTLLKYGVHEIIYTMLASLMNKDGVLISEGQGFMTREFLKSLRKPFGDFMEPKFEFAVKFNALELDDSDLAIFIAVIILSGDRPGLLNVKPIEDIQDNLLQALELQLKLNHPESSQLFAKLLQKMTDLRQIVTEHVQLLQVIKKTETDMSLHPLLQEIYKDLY
T1 sequence (P19793 1-462 partner): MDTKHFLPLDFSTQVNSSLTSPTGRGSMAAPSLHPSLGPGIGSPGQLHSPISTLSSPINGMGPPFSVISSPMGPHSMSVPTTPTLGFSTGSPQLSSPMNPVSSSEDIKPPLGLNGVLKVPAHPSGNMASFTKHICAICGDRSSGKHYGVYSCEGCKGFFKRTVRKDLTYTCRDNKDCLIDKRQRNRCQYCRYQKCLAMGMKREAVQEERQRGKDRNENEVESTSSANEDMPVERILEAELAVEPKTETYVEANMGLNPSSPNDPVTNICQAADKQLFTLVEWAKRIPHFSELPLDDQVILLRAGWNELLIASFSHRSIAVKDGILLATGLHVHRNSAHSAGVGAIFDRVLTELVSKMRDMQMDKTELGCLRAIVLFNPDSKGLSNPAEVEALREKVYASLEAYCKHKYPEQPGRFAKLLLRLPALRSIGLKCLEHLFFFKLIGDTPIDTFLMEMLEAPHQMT
The experiment in a line: Evaluation of PPARγ activating action (luciferase reporter in PPARγ:RXRα:4ERPP/CHO-K1 cells). To be noted: CHO-K1, 24 h; test compound 10^−6 M; luciferase activity relative to control compound X (1 μM) = 100%, non-administration group = 0%; read-out: PPARγ activating action (activation % (10^−6 M)). Format: cell-based. In a few lines:
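Activity is expressed as percent, where vehicle gives 0% and 1 μM compound X gives 100%, based on luciferase luminescence. Reporter CHO-K1 cells co-expressing PPARγ:RXRα with a 4ERPP-driven luciferase were incubated with test compound for one day at 37 °C in medium with 0.1% fatty acid-free BSA.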

In another test the target is T2, human AT1 receptor (Homo sapiens, UniProt P30556).
T2 construct: expressed in transfected cells; host or cells: CHO-K1
T2 sequence (P30556 1-359): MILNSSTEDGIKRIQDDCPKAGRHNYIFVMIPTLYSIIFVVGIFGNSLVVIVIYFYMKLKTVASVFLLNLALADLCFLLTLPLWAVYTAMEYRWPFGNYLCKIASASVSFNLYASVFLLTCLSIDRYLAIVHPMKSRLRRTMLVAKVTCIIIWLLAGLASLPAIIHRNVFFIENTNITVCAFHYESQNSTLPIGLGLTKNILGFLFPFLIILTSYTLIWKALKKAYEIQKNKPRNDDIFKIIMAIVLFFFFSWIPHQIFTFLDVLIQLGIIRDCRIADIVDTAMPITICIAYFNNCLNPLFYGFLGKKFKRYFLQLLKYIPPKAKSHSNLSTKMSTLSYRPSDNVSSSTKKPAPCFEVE
Kind of test: Binding assay using human AT1 receptor-expressing CHO-K1 cell membrane fraction ([125I]-angiotensin II). The following applies: 22.5 pM [125I]-angiotensin II, 9 μg AT1 membrane, 1 hr room temperature; read-out: AT1 receptor binding inhibitory action (IC50 (nM)). In a few lines:
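Radioligand displacement: test compound competed with [125I]-angiotensin II (22.5 pM) on stable CHO-K1 AT1 membrane fraction, 1 hr, room temperature, Tris pH 7.4/MgCl2 buffer ± 0.3 mg/mL BSA. Filtration then scintillation counting; 1 μM CV-11974 defined nonspecific binding. Values are IC50s.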

Consider `CCCc1nc(CC)c(-c2ccc(OCC3CC3)nc2)c(=O)n1Cc1ccc(-c2ccccc2-c2noc(=O)[nH]2)cc1` [Example 500, 5-[6-(cyclopropylmethoxy)pyridin-3-yl]-6-ethyl-3-{[2′-(5-oxo-4,5-dihydro-1,2,4-oxadiazol-3-yl)biphenyl-4-yl]methyl}-2-propylpyrimidin-4(3H)-one], for which the activation at 1 µM at PPARγ amounted to 35.9%. In addition, the IC50 on human AT1 receptor came out at 2.7 nM.

Regarding `CCCc1nc(C)c(-c2ccc(OCC3CC3)nc2)c(=O)n1Cc1ccc(-c2ccccc2-c2noc(=O)[nH]2)cc1F` [Example 501, 5-[6-(cyclopropylmethoxy)pyridin-3-yl]-3-{[3-fluoro-2′-(5-oxo-4,5-dihydro-1,2,4-oxadiazol-3-yl)biphenyl-4-yl]methyl}-6-methyl-2-propylpyrimidin-4(3H)-one], at PPARγ, the activation at 1 µM stood at 31.8%. Also, the concentration for half-maximal inhibition (IC50) on human AT1 receptor was determined as 2.6 nM.

For `CCCc1nc(CC)c(-c2ccc(OCC)nc2)c(=O)n1Cc1ccc(-c2ccccc2-c2noc(O)n2)cc1` [Example 507, 5-(6-ethoxypyridin-3-yl)-6-ethyl-3-{[2′-(5-oxo-4,5-dihydro-1,2,4-oxadiazol-3-yl)biphenyl-4-yl]methyl}-2-propylpyrimidin-4(3H)-one], at PPARγ, the activation at 1 µM stood at 32.4%. The half-maximal inhibitory concentration (IC50) on human AT1 receptor was 2.2 nM.

As to `CCCc1nc(C)c(-c2ccc(OC(C)(C)CO)cc2)c(=O)n1Cc1ccc(-c2ccccc2-c2noc(=O)[nH]2)cc1F` [Example 509, 3-{[3-fluoro-2′-(5-oxo-4,5-dihydro-1,2,4-oxadiazol-3-yl)biphenyl-4-yl]methyl}-5-[4-(2-hydroxy-1,1-dimethylethoxy)phenyl]-6-methyl-2-propylpyrimidin-4(3H)-one], the activation at 1 µM at PPARγ turned out to be 16.2%. In addition, at human AT1 receptor, the IC50 is 1.2 nM.

On to `CCCCc1nc(C2CC2)c(-c2ccc(OC(C)(C)CO)cc2)c(=O)n1Cc1ccc(-c2ccccc2-c2noc(O)n2)cc1` [Example 510, 2-butyl-6-cyclopropyl-5-[4-(2-hydroxy-1,1-dimethylethoxy)phenyl]-3-{[2′-(5-oxo-4,5-dihydro-1,2,4-oxadiazol-3-yl)biphenyl-4-yl]methyl}pyrimidin-4(3H)-one], for which the activation at 1 µM at PPARγ was found to be 24.4%. The IC50 at human AT1 receptor was found to be 2.3 nM.

As for `CCCc1nc(CC)c(-c2ccc(OC(C)(C)CO)cc2)c(=O)n1Cc1ccc(-c2ccccc2-c2noc(=O)[nH]2)cc1F` [Example 511, 6-ethyl-3-{[3-fluoro-2′-(5-oxo-4,5-dihydro-1,2,4-oxadiazol-3-yl)biphenyl-4-yl]methyl}-5-[4-(2-hydroxy-1,1-dimethylethoxy)phenyl]-2-propylpyrimidin-4(3H)-one], the activation at 1 µM at PPARγ turned out to be 31%. Also, at human AT1 receptor, the half-inhibitory concentration (IC50) is 1.3 nM.

As to `CCCc1nc(CC)c(-c2ccc(OC(C)(C)CO)cc2)c(=O)n1Cc1ccc(-c2ccccc2-c2noc(O)n2)cc1` [Example 512, 6-ethyl-5-[4-(2-hydroxy-1,1-dimethylethoxy)phenyl]-3-{[2′-(5-oxo-4,5-dihydro-1,2,4-oxadiazol-3-yl)biphenyl-4-yl]methyl}-2-propylpyrimidin-4(3H)-one], the activation at 1 µM at PPARγ was determined as 20.3%. On human AT1 receptor, the IC50 came out at 1.3 nM.
